# Legend:
# ALOMY [1] = experiment: Pre-emergence action against ALOMY, 1280 g/ha; assay type: in vivo, Alopecurus myosuroides; conditions: visual scoring after about 3 weeks vs untreated controls, 100% = plants have died, 0% = like control plants
# How it was run: (§1)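 Activity was scored visually as percent versus untreated controls about 3 weeks after treatment (100% = dead plants, 0% = control-like). Compounds, formulated as wettable powders or emulsion concentrates, were sprayed onto the covering soil over freshly sown seeds in sandy loam, with 0.5% additive and 600 L/ha water.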
# DIGSA = experiment: Pre-emergence action against DIGSA, 1280 g/ha; assay type: in vivo, Digitaria sanguinalis; conditions: visual scoring after about 3 weeks vs untreated controls, 100% = plants have died, 0% = like control plants
# How it was run: as §1
# VERPE = experiment: Pre-emergence action against VERPE, 1280 g/ha; assay type: in vivo, Veronica persica; conditions: scored visually after about 3 weeks vs untreated controls (100% = plants have died); for pest or weed control at 1280 g/ha: Veronica persica, 504 h
# How it was run: as §1
# MATIN [2] = experiment: Pre-emergence action at 320 g/ha against MATIN; assay type: in vivo, Tripleurospermum inodorum (Matricaria inodora); conditions: visual scoring after about 3 weeks vs untreated controls; for pest or weed control at 320 g/ha: Tripleurospermum inodorum, 504 h
# How it was run: (§2)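 Pre-emergence soil-surface spray: WP or EC formulation, aqueous, 0.5% additive, 600 l/ha water volume. Greenhouse growth about 3 weeks; visual percent effect relative to untreated pots.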
# PHBPU [3] = experiment: Pre-emergence action at 320 g/ha against PHBPU; assay type: in vivo; conditions: visual scoring after about 3 weeks vs untreated controls
# How it was run: as §2
# ECHCG = experiment: Post-emergence action against ECHCG, 1.28 kg/ha; assay type: in vivo, Echinochloa crus-galli; conditions: dosage 1280 g/ha, visual rating about 3 weeks after treatment vs untreated controls; for pest or weed control at 1280 g/ha: Echinochloa crus-galli, 504 h
# How it was run: (§3)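 Activity scored visually roughly 3 weeks after treatment against untreated plants (0% = as control, 100% = dead). Plants grown in sandy loam in greenhouse, treated at one-leaf stage, 2–3 weeks post-sowing, with WP/EC spray containing 0.5% additive at 600 l/ha.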
# ALOMY [4] = experiment: Post-emergence action against ALOMY, 320 g/ha; assay type: in vivo, Alopecurus myosuroides; conditions: dosage 320 g/ha, visual rating about 3 weeks after treatment vs untreated controls (100% = plants died)
# How it was run: (§4)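 Activity is a visual rating against untreated controls, with 0% like control and 100% dead plants, made about 3 weeks after treatment. Plants grown in sandy loam in the greenhouse received a post-emergence spray at the one-leaf stage of 320 g/ha, formulated as WP or EC with 0.5% additive in 600 l/ha water.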
# ABUTH = experiment: Post-emergence action at 320 g/ha against ABUTH; assay type: in vivo, Abutilon theophrasti; conditions: visual rating about 3 weeks after treatment vs untreated controls
# How it was run: as §4
# AMARE = experiment: Post-emergence action at 320 g/ha against AMARE; assay type: in vivo, Amaranthus retroflexus; conditions: visual rating about 3 weeks after treatment vs untreated controls
# How it was run: as §4
# SETVI = experiment: Post-emergence action at 320 g/ha against SETVI; assay type: in vivo, Setaria viridis; conditions: visual rating about 3 weeks after treatment vs untreated controls
# How it was run: as §4
# PHBPU [5] = experiment: Post-emergence action at 320 g/ha against PHBPU; assay type: in vivo; conditions: visual rating about 3 weeks after treatment vs untreated controls
# How it was run: as §4
# POLCO = experiment: Post-emergence action at 320 g/ha against POLCO; assay type: in vivo, Fallopia convolvulus (Polygonum convolvulus); conditions: visual rating about 3 weeks after treatment vs untreated controls; for pest or weed control at 320 g/ha: Fallopia convolvulus, 504 h
# How it was run: as §4
# KCHSC [6] = experiment: Pre-emergence action against KCHSC, 1280 g/ha; assay type: in vivo, Bassia scoparia; conditions: scored visually after about 3 weeks vs untreated controls (100% = plants have died)
# How it was run: as §1
# KCHSC [7] = experiment: Post-emergence action against KCHSC, 1.28 kg/ha; assay type: in vivo, Bassia scoparia; conditions: dosage 1280 g/ha, visual rating about 3 weeks after treatment vs untreated controls (100% = plants died)
# How it was run: as §3
# MATIN [8] = experiment: Post-emergence action against MATIN, 1.28 kg/ha; assay type: in vivo, Tripleurospermum inodorum (Matricaria inodora); conditions: dosage 1280 g/ha, visual rating about 3 weeks after treatment vs untreated controls (100% = plants died)
# How it was run: as §3
# STEME = experiment: Pre-emergence action at 320 g/ha against STEME; assay type: in vivo, Stellaria media; conditions: greenhouse, scored visually after about 3 weeks vs untreated controls, 100% = plants have died, 0% = like control plants
# Excerpt: b) Seeds of monocotyledonous and dicotyledonous weed plants and crop plants are placed in plastic or organic planting pots and covered with soil. The compounds of the invention, formulated in the form of wettable powders (WP) or as emulsion concentrates (EC), are then applied onto the surface of the covering soil as aqueous suspension or emulsion with addition of 0.5% additive at a water application rate of 600 l/ha (converted). After the treatment, the pots are placed in a greenhouse and kept under good growth conditions for the trial plants. After about 3 weeks, the effect of the preparations is scored visually in comparison with untreated controls as percentages. For example, 100% activity=the plants have died, 0% activity=like control plants. Tables 13 to 26 below show the effects of selected compounds of the general formula (I) on various harmful plants and at an application rate corresponding to 320 g/ha, which were obtained by the experimental procedure mentioned above.
Compound,Pre-emergence action against ALOMY (ALOMY [1]) [%],Pre-emergence action against DIGSA (DIGSA) [%],Pre-emergence action against VERPE (VERPE) [%],Pre-emergence action against MATIN in % (MATIN [2]) [%],Pre-emergence action against PHBPU in % (PHBPU [3]) [%],Post-emergence action against ECHCG (ECHCG) [%],Post-emergence action against ALOMY (ALOMY [4]) [%],Post-emergence action against ABUTH in % (ABUTH) [%],Post-emergence action against AMARE in % (AMARE) [%],Post-emergence action against SETVI in % (SETVI) [%],Post-emergence action against PHBPU in % (PHBPU [5]) [%],Post-emergence action against POLCO in % (POLCO) [%],Pre-emergence action against KCHSC (KCHSC [6]) [%],Post-emergence action against MATIN (MATIN [8]) [%],other results
COC(=O)CNC(=O)COc1nn(-c2ccccc2F)c(-c2ccc(F)nc2)c1Br [Example X-002],100,100,100,100,80,90,100,90,100,90,90,90,,,
"COC(=O)[C@@H](C)Oc1nn(-c2ccccc2F)c(-c2cncnc2)c1Br [VI-011, Methyl (2R)-2-{[4-bromo-1-(2-fluorophenyl)-5-(pyrimidin-5-yl)-1H-pyrazol-3-yl]oxy}propanoate]",90,100,,,90,,90,90,,90,,,100,,"pest or weed control at 1280 g/ha (VERPE): 100%; pest or weed control at 320 g/ha (MATIN [2]): 90%; pest or weed control at 1280 g/ha (ECHCG): 100%; Post-emergence action against KCHSC (KCHSC [7]): 90%; pest or weed control at 320 g/ha (AMARE; Amaranthus retroflexus, 504 h): 80%; pest or weed control at 320 g/ha (POLCO): 80%"
CCOC(=O)COc1nn(-c2ccccc2F)c(-c2ccc(F)nc2)c1C(F)(F)F [VII-010],100,100,100,100,90,100,90,80,90,90,90,80,,90,
CCOC(=O)COc1nn(-c2ccccc2F)c(-c2cncc(F)c2)c1Br [VII-015],90,90,100,100,90,100,90,90,90,100,90,100,,100,
O=C(O)COc1nn(-c2ccccc2F)c(-c2cncc(F)c2)c1Br [VII-025],100,100,100,100,90,100,100,90,90,100,90,90,90,90,
COC(=O)COc1nn(-c2ccccc2F)c(-c2ccc(F)nc2)c1C(F)(F)F [VII-031],100,100,100,100,80,100,100,90,90,90,90,90,,100,
COC(=O)COc1nn(-c2ccccc2F)c(-c2cncc(F)c2)c1Br [VII-035],100,90,100,100,90,100,90,90,90,90,100,90,90,90,
"CCOC(=O)COc1nn(-c2ccccc2F)c(-c2ccnc(F)c2)c1Br [VIII-003, Ethyl {[4-bromo-1-(2-fluorophenyl)-5-(2-fluoropyridin-4-yl)-1H-pyrazol-3-yl]oxy}acetate]",,,,,,,90,,,,80,,,,pest or weed control at 1280 g/ha (VERPE): 90%; pest or weed control at 320 g/ha (MATIN [2]): 90%; Pre-emergence action at 320 g/ha against STEME in % (STEME): 80%; pest or weed control at 1280 g/ha (ECHCG): 100%; pest or weed control at 320 g/ha (POLCO): 80%
